Measured values: PMC5209312, “Glycin-rich antimicrobial peptide YD1 from B. amyloliquefaciens, induced morphological alteration in and showed affinity for plasmid DNA of E. coli” (AMB Express, 2017)
Where two headings read alike, the source gives them in different places. Ends that are not written are not given here.

Columns and labels:
[1] = tested on: VRE 2; type: cell-based, vancomycin-resistant enterococci
Experimental: (§1) The minimal inhibitory concentration (MIC) was determined according to the method described by Weigand et al. ([2008]).

[2] = tested on: VRE 5; type: cell-based, vancomycin-resistant enterococci
Experimental: as §1

[3] = tested on: Mycobacterium smegmatis ATCC 9341; type: cell-based
Experimental: A filter paper disc (8 mm, Toyo Roshi Kaisha, Japan) saturated with antimicrobial sample (40 µL) was placed on the surface of petri dish (87 mm × 15 mm) containing Mueller Hinton Agar (MHA). The plate was incubated at 37 °C, and a clear zone of inhibition surrounding the paper disc was measured in millimeter (mm). […] The titer of the antimicrobial substance solution, in AU/mL, was calculated as (1000/d) D, where D was the dilution factor, and d was the dose, the amount of antimicrobial substance solution added to each spot. AU and the zone of inhibition were measured against Mycobacterium smegmatis ATCC 9341 while optimizing CBSYD1 media.

[4] = tested on: Mycobacterium smegmatis ATCC 9341; type: cell-based; remark: listed apart in the source
Experimental: as §1

[5] = tested on: Pseudomonas aeruginosa KCTC 1637; type: cell-based
Experimental: as §1

[6] = tested on: Salmonella Typhimurium KCTC 1925; type: cell-based
Experimental: as §1

[7] = tested on: Enterococcus faecalis ATCC 29212; type: cell-based
Experimental: as §1

[8] = tested on: Alcaligenes faecalis ATCC 1004; type: cell-based
Experimental: as §1

[9] = tested on: Escherichia coli KCTC1923 (E. coli), methicillin-resistant Staphylococcus aureus B15 (MRSA), and vancomycin-resistant enterococci (VRE); type: cell-based
Experimental: as §1

[10] = tested on: Micrococcus luteus ATCC 9341; type: cell-based
Experimental: as §1

[11] = tested on: VRSA; type: cell-based
Experimental: as §1

[12] = tested on: Escherichia coli KCTC 1923; type: cell-based
Experimental: as §1

[13] = tested on: Bacillus subtilis ATCC 6633; type: cell-based
Experimental: as §1

[14] = Experimental: (§2) The thermal stability of YD1 samples was determined by exposure to 20, 40, 60, 80 and 100 °C for 30 min and to 121 °C/105 kPa for 15 min before analyzing the residual activity. Similarly, pH stability was determined over a range of pH 2–10 using 1 M NaOH or HCl. The effect of protease enzyme on YD1 stability was determined at two different enzyme concentrations (1 and 2 mg/mL).
[15] = tested on: protease enzymes; settings: enzymes at 1 and 2 mg/mL
Experimental: as §2

[16] = tested on: E. coli spheroplasts; type: cell-based, Escherichia coli; settings: 2 h, 40 µg/mL
Experimental: Spheroplasts are gram-negative bacteria in which nearly all of the outer membrane (OM) has been removed. Lysozyme destroys the peptide bonds in peptidoglycan and weakens the cell wall. E. coli was grown in 10 mL of MHB, incubated overnight at 37 °C on a shaker at 180 rpm. Each culture (100 µL) was used to inoculate 20 mL of fresh media and incubated at 37 °C for 2 h at 180 rpm. Spheroplasts were prepared as described by Kikuchi et al. ([2015]).
Re-suspended spheroplasts and whole cells suspension were adjusted to OD 570 nm of 0.2 and 100 µL of each was added to a clear, flat-bottomed microtiter plate in duplicate wells. Ten microliters of YD1 in 10 mM Tris–HCl buffer (pH 7) was added to test wells for both preparations (spheroplasts and whole cells) at the indicated different final concentrations. To the control, 10 µL of 10 mM Tris–HCl buffer (pH 7) was added in lieu of YD1. The percentage of intact spheroplasts or whole cells was calculated as: =Sample OD at time X/Sample OD at time0×100
Decrease in the OD of the suspension after addition of a membrane-active agent indicates lysis of spheroplasts.

[17] = tested on: MRSA B15; type: cell-based, methicillin-resistant Staphylococcus aureus; settings: method of Wiegand et al. 2008
Experimental: as §1

[18] = tested on: Staphylococcus aureus KCTC 1928; test: MIC determination; type: cell-based; settings: method of Wiegand et al. 2008
Experimental: as §1

APKGVQGPNG [YD1, Ala-Pro-Lys-Gly-Val-Gln-Gly-Pro-Asn-Gly]
MIC [1]: 64 µg/mL
MIC [2]: 64 µg/mL
clear zone of inhibition [3]: up to 16 mm
MIC ([4]; ATCC 9341): 8 µg/mL
MIC ([5]; KCTC 1637): 16 µg/mL
MIC ([6]; KCTC 1925): 32 µg/mL
MIC ([7]; ATCC 29212): 64 µg/mL
MIC ([8]; ATCC 1004): >128 µg/mL
MIC (range over E. coli KCTC1923, MRSA B15 and VRE) [9]: 8 to 64 µg/mL
MIC ([10]; ATCC 9341): 64 µg/mL
MIC [11]: >128 µg/mL
MIC ([12]; KCTC 1923): 8 µg/mL
MIC ([13]; ATCC 6633): 64 µg/mL
thermal stability (activity) ([14]; at or above 100 °C (100 °C 30 min; 121 °C/105 kPa 15 min)): decreased sharply
pH stability (residual activity) ([14]; pH 4–9, tested pH 2–10 with 1 M NaOH or HCl): completely stable
thermal stability (residual activity) ([14]; up to 80 °C, 30 min exposure): completely stable
effect of protease enzymes on antimicrobial activity [15]: failed to alter
intact surviving spheroplasts [16]: > 88%

Bacitracin [reference compound]
MIC [17]: 64 µg/mL
MIC ([1]; VRE 2, method of Wiegand et al. 2008): 32 µg/mL
MIC ([2]; VRE 5, method of Wiegand et al. 2008): 64 µg/mL
MIC ([4]; Mycobacterium smegmatis ATCC 9341, method of Wiegand et al. 2008): >128 µg/mL
MIC ([5]; Pseudomonas aeruginosa KCTC 1637, method of Wiegand et al. 2008): >128 µg/mL
MIC ([6]; Salmonella Typhimurium KCTC 1925, method of Wiegand et al. 2008): 64 µg/mL
MIC ([7]; Enterococcus faecalis ATCC 29212, method of Wiegand et al. 2008): 2 µg/mL
MIC ([8]; Alcaligenes faecalis ATCC 1004, method of Wiegand et al. 2008): >128 µg/mL
MIC ([10]; Micrococcus luteus ATCC 9341, method of Wiegand et al. 2008): 64 µg/mL
MIC ([11]; VRSA, method of Wiegand et al. 2008): >128 µg/mL
MIC ([12]; Escherichia coli KCTC 1923, method of Wiegand et al. 2008): >128 µg/mL
MIC ([13]; Bacillus subtilis ATCC 6633, method of Wiegand et al. 2008): 64 µg/mL
MIC [18]: >128 µg/mL
